EC50 data for 19 compounds are collected here from patent US11179383B2 (Gilead Sciences, Inc., priority 2018, dated 2021).

By EC50 is commonly meant the concentration giving half of the maximal effect.

The structures appear in SMILES notation.

The target in the test is T1, α4β7 integrin (Homo sapiens, UniProt P13612+P26010).
T1 construct: monitoring the capture of α4β7 integrin expressing cells on a recombinant MadCAM-1 extracellular domain-coated plate; endogenous in cells; host or cells: RPMI8866 cells
T1 sequence (P13612 34-1032): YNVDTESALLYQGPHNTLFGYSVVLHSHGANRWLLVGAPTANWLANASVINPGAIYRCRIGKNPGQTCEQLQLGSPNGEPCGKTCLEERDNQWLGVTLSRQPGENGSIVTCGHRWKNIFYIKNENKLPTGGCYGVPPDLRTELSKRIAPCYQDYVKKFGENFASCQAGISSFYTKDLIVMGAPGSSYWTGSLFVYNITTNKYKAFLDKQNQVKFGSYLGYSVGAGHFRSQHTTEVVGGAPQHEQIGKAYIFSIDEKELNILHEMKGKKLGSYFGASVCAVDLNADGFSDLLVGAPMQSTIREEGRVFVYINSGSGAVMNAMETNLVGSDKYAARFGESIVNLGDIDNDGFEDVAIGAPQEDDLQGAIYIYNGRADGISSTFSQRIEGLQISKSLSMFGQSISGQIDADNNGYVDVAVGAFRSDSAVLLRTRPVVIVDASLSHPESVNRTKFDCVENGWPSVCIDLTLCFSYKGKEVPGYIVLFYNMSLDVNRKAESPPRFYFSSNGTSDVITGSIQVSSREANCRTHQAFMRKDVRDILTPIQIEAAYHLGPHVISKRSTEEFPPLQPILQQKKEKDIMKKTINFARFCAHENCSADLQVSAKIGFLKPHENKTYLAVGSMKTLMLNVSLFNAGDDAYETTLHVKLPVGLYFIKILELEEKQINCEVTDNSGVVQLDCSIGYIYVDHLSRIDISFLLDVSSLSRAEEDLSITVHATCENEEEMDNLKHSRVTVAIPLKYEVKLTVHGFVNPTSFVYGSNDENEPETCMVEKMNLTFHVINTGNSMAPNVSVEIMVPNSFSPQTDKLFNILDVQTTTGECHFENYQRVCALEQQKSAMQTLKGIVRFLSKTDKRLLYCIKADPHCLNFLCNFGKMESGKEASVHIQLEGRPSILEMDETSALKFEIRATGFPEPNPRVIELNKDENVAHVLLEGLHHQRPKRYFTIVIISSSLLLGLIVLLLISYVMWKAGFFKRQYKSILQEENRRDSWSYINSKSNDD
T1 sequence (P26010 20-798): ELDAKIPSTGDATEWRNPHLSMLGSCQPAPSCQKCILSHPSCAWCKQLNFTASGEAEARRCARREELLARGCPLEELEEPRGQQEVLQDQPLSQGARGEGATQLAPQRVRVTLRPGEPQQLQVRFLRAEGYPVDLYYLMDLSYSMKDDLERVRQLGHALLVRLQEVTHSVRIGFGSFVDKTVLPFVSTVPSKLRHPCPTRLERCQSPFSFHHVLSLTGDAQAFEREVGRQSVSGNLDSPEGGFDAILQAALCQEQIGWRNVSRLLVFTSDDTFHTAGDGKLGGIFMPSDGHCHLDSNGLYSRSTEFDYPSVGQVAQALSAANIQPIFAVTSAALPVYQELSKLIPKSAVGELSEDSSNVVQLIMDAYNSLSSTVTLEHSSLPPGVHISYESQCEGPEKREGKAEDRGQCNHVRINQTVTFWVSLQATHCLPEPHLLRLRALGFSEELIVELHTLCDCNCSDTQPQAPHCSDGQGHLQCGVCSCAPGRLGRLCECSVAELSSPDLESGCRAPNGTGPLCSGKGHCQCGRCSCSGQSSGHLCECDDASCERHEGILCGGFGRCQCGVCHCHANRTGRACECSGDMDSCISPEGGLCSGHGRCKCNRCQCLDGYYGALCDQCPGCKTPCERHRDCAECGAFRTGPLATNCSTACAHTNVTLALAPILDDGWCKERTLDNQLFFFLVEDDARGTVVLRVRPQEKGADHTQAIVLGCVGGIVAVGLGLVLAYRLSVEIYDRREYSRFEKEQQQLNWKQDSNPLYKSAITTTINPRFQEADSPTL
Kind of test: α4β7 Integrin Cell Capture Assay. Type of test: cell-based. The following applies: capture of α4β7 integrin expressing RPMI8866 cells on recombinant MadCAM-1 extracellular domain-coated plate; DMEM+0.5% FBS+0.5 mM MnCl2; read-out: EC50 α4β7. The procedure, abridged:
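RPMI8866 cells in DMEM + 0.5% FBS + 0.5 mM MnCl2 preincubated with compound 1 h at 37 °C, then allowed to bind 30 min at 37 °C to plates coated with MAdCAM-1 extracellular domain (1.0 μg/mL). Cells fixed with glutaraldehyde, Hoechst-stained, imaged and bound cells counted; EC50 from cell count versus concentration.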
As to `O=C(N[C@@H](Cc1ccc(-c2ncc3ccccc3c2Br)c2ccccc12)C(=O)O)c1c(F)cccc1F` [Example 114, (S)-3-(4-(4-bromoisoquinolin-3-yl)naphthalen-1-yl)-2-(2,6-difluorobenzamido)propanoic acid], the half-maximal effective concentration (EC50) amounted to 29.9 nM.
For `O=C(N[C@@H](Cc1ccc(-c2ncc3ccccc3c2C(F)(F)F)c2ccccc12)C(=O)O)c1c(Cl)cccc1Cl` [Example 115, (S)-2-(2,6-dichlorobenzamido)-3-(4-(4-(trifluoromethyl)isoquinolin-3-yl)naphthalen-1-yl)propanoic acid], the concentration for a half-maximal effect (EC50) was 21.7 nM.
For `O=C(N[C@@H](Cc1ccc(-c2cc(F)c(F)cc2OC2CC2)c2ccccc12)C(=O)O)c1c(Cl)cccc1Cl` [Example 116, (S)-3-(4-(2-cyclopropoxy-4,5-difluorophenyl)naphthalen-1-yl)-2-(2,6-dichlorobenzamido)propanoic acid], the concentration for a half-maximal effect (EC50) was determined as 72.6 nM.
With `Cn1c(=O)c(-c2ccc(C[C@H](NC(=O)c3c(Cl)cccc3Cl)C(=O)O)c3ccccc23)c(C(F)(F)F)c2ccccc21` [Example 121, (S)-2-(2,6-dichlorobenzamido)-3-(4-(1-methyl-2-oxo-4-(trifluoromethyl)-1,2-dihydroquinolin-3-yl)naphthalen-1-yl)propanoic acid], the concentration for a half-maximal effect (EC50) was determined as 3.9 nM.
As to `Cc1ccnc(-c2ccc(C[C@H](NC(=O)c3c(F)cc(N4CCOC[C@@H]4C(F)(F)F)cc3F)C(=O)O)c3ccccc23)c1C(F)(F)F` [Example 122], the EC50 was 1.1 nM.
With `CC[C@@H](Nc1cc(F)c(C(=O)N[C@@H](Cc2ccc(-c3nccc(C)c3C(F)(F)F)c3ccccc23)C(=O)O)c(F)c1)C(F)(F)F` [Example 123, (S)-2-(2,6-difluoro-4-(((R)-1,1,1-trifluorobutan-2-yl)amino)benzamido)-3-(4-(4-methyl-3-(trifluoromethyl)pyridin-2-yl)naphthalen-1-yl)propanoic acid] the figure was 10.2 nM; with `Cc1c(-c2ccc(C[C@H](NC(=O)c3c(F)cc(N4CCOC[C@@H]4C(F)(F)F)cc3F)C(=O)O)c3ccccc23)c(=O)n(C)c(=O)n1C` [Example 138, (S)-2-(2,6-difluoro-4-((R)-3-(trifluoromethyl)morpholino)benzamido)-3-(4-(1,3,6-trimethyl-2,4-dioxo-1,2,3,4-tetrahydropyrimidin-5-yl)naphthalen-1-yl)propanoic acid], 0.3 nM; with `CC[C@@H](Nc1cc(F)c(C(=O)N[C@@H](Cc2ccc(-c3c(C)n(C)c(=O)n(C)c3=O)c3ccccc23)C(=O)O)c(F)c1)C(F)(F)F` [Example 139, (S)-2-(2,6-difluoro-4-(((R)-1,1,1-trifluorobutan-2-yl)amino)benzamido)-3-(4-(1,3,6-trimethyl-2,4-dioxo-1,2,3,4-tetrahydropyrimidin-5-yl)naphthalen-1-yl)propanoic acid], 0.4 nM.
`Cn1c(=O)c(-c2ccc(C[C@H](NC(=O)c3c(F)cc(N4CCOC[C@@H]4C(F)(F)F)cc3F)C(=O)O)c3ccccc23)cc2cnccc21` [Example 140, (S)-2-(2,6-difluoro-4-((R)-3-(trifluoromethyl)morpholino)benzamido)-3-(4-(1-methyl-2-oxo-1,2-dihydro-1,6-naphthyridin-3-yl)naphthalen-1-yl)propanoic acid]: the EC50 is 0.1 nM.
On to `Cc1cnc(-c2ccc(C[C@H](NC(=O)c3c(F)cc(N4CCOC[C@@H]4C(F)(F)F)cc3F)C(=O)O)c3ccccc23)nc1C` [Example 141, (S)-2-(2,6-difluoro-4-((R)-3-(trifluoromethyl)morpholino)benzamido)-3-(4-(4,5-dimethylpyrimidin-2-yl)naphthalen-1-yl)propanoic acid], for which the EC50 worked out at 3.6 nM.
With `CC[C@@H](Nc1cc(F)c(C(=O)N[C@@H](Cc2ccc(-c3cc4cnccc4n(C)c3=O)c3ccccc23)C(=O)O)c(F)c1)C(F)(F)F` [Example 142] the figure was 0.5 nM; with `CCOCc1cc(OC)c(-c2ccc(CC(NC(=O)c3c(F)cc(NS(=O)(=O)c4ccc(-c5ccnc(F)c5)cc4)cc3F)C(=O)O)c3c2cnn3C)c(OC)c1` (stereo not shown) [Example 143, 2-(2,6-difluoro-4-((4-(2-fluoropyridin-4-yl)phenyl)sulfonamido)benzamido)-3-(4-(4-(ethoxymethyl)-2,6-dimethoxyphenyl)-1-methyl-1H-indazol-7-yl)propanoic acid], 30.2 nM.
In the case of `CCOCc1cc(OC)c(-c2ccc(C[C@H](NC(=O)c3c(F)cc(NS(=O)(=O)c4ccc(-c5ccnc(F)c5)cc4)cc3F)C(=O)O)c3c2cnn3C)c(OC)c1` [Example 144], the EC50 amounted to 4.9 nM.
As to `CCOCc1cc(OC)c(-c2ccc(CC(NC(=O)c3c(F)cc(NS(=O)(=O)c4ccc(-c5ccnc(F)c5)cc4)cc3F)C(=O)O)c3cnn(C)c23)c(OC)c1` (stereo not shown) [Example 146, 2-(2,6-difluoro-4-((4-(2-fluoropyridin-4-yl)phenyl)sulfonamido)benzamido)-3-(7-(4-(ethoxymethyl)-2,6-dimethoxyphenyl)-1-methyl-1H-indazol-4-yl)propanoic acid], the EC50 is 0.6 nM.
Turning to `CCOCc1cc(OC)c(-c2ccc(C[C@H](NC(=O)c3c(F)cc(NS(=O)(=O)c4ccc(-c5ccnc(F)c5)cc4)cc3F)C(=O)O)c3nsnc23)c(OC)c1` [Example 149, (S)-2-(2,6-difluoro-4-((4-(2-fluoropyridin-4-yl)phenyl)sulfonamido)benzamido)-3-(7-(4-(ethoxymethyl)-2,6-dimethoxyphenyl)benzo[c]-[1,2,5]thiadiazol-4-yl)propanoic acid], the EC50 stood at 0.3 nM.
Turning to `O=C(N[C@@H](Cc1ccc(-c2c(Cl)cc(F)cc2Cl)c2nsnc12)C(=O)O)c1c(F)cccc1F` [Example 150, (S)-3-(7-(2,6-dichloro-4-fluorophenyl)benzo[c][1,2,5]thiadiazol-4-yl)-2-(2,6-difluorobenzamido)propanoic acid], the EC50 turned out to be 181 nM.
The figure for `CCOCc1cc(OC)c(-c2ccc(C[C@H](NC(=O)c3c(F)cc(NS(=O)(=O)c4ccc(-c5ccnc(F)c5)cc4)cc3F)C(=O)O)c3nc(C)oc23)c(OC)c1` [Example 151, (S)-2-(2,6-difluoro-4-((4-(2-fluoropyridin-4-yl)phenyl)sulfonamido)benzamido)-3-(7-(4-(ethoxymethyl)-2,6-dimethoxyphenyl)-2-methylbenzo[d]oxazol-4-yl) propanoic acid] is 5.8 nM.
With `CCOCc1cc(OC)c(-c2ccc(C[C@H](NC(=O)c3c(F)cccc3F)C(=O)O)c3nc(C)oc23)c(OC)c1` [Example 152, (S)-2-(2,6-difluorobenzamido)-3-(7-(4-(ethoxymethyl)-2,6-dimethoxyphenyl)-2-methylbenzo[d]oxazol-4-yl)propanoic acid] the figure was 57.8 nM; with `CCOCc1cc(OC)c(-c2ccc(C[C@H](NC(=O)c3c(Cl)cccc3Cl)C(=O)O)c3nc(C)oc23)c(OC)c1` [Example 153, (S)-2-(2,6-dichlorobenzamido)-3-(7-(4-(ethoxymethyl)-2,6-dimethoxyphenyl)-2-methylbenzo[d]oxazol-4-yl)propanoic acid], 28.4 nM.
